“And” between values parts separate entries of the source, which are not always exact repeats. Identical values can stand only once.
What was measured:
Format in all cases: cell-based, human
CD34+ cells [1] = assay: Ex-vivo expansion of CD34+ cell enriched cord blood cultures with cytokines; cell counts and FACS surface antigen analysis; details: for No. of CD34+ cells: treated for one week only; for % 34+ cells / % 34+/38− cells / % 34+/Lin− cells / No. of cells (×10^4): two weeks after seeding, 4 cytokines
Experimental: (§1) Human blood cells were obtained from umbilical cord blood from female patients following full-term, normal delivery (informed consent was obtained).
Samples were collected and processed within 12 hours postpartum. Blood was mixed with 3% Gelatin (Sigma, St. Louis, Mo.), sedimented for 30 minutes to remove most red blood cells. […] The mononuclear cell fraction in the interface layer was collected, washed three times and resuspended in phosphate-buffered saline (PBS) solution (Biological Industries) containing 0.5% bovine serum albumin (BSA, Fraction V; Sigma).
To purify CD34^+ mononuclear cells, the fraction was subjected to two cycles of immuno-magnetic separation using the MiniMACS® or Clinimax® CD34 Progenitor Cell Isolation Kit (Miltenyi Biotec, Auburn, Calif.) as per manufacturer's recommendations.
CD34^+ expressing purified cells above were cultured in 24-well Costar Cell Culture Clusters (Corning Inc., Corning, N.Y.) or culture bags (American Fluoroseal Corp), at a concentration of 10^4 cells/ml in alpha medium (Biological Industries, Beit Haemek, Israel) supplemented with 10% fetal bovine serum (FBS, Biological Industries). The following human recombinant cytokines were added: Thrombopoietin (TPO), interleukin-6 (IL-6), FLT-3 ligand and stem cell factor (SCF), all at final concentrations of 50 ng/ml each, though occasionally IL-3, at a concentration of 20 ng/ml, was added either together or instead of SCF. For non-hematopoietic cell differentiation, FGF, EGF, NGF, VEGF, LIF or Hepatocyte growth factor (HGF) were used to supplement the growth medium, either alone or in various combinations. All cytokines used were purchased from Perpo Tech, Inc. (Rocky Hill, N.J.). The cultures were incubated at 37° C., 5% CO2, in a humidified atmosphere.
At weekly intervals, cell cultures were toped and semi-depopulated and were supplemented with fresh medium, serum and cytokines or supplemented with fresh growth medium, alone. At predetermined time points, cells were harvested, stained with trypan blue, counted, and cell morphology was determined via the use of cytospin (Shandon, UK)-prepared smears stained with May-Grunwald/Giemsa solutions.
CD34^+ purified and whole MNC cultures were prepared and maintained as described above. […] The antagonist was added for a predetermined, limited period, for up to three weeks or continuously during the entire culture period.
Cells were harvested, washed with a PBS solution containing 1% bovine sera albumin (BSA) and 0.1% sodium azide (Sigma), and stained at 4° C. for 60 minutes with fluorescein isothiocyanate or phycoerythrin-conjugated antibodies (all from Immunoquality Products, the Netherlands). The cells were then washed with the same buffer and analyzed by FACS caliber or Facstarplus flow cytometers. Cells were passed at a rate of 1000 cells/second, using saline as the sheath fluid. A 488 nm argon laser beam served as the light source for excitation. Emission of ten thousand cells was measured using logarithmic amplification, and analyzed using CellQuest software. Negative control staining of cells was accomplished with mouse IgG-PE (Dako A/S Glostrup, Denmark) and mouse IgG-FITC (BD Biosciences, Erembodegem, Belgium).
(§2) CD34 surface expression on short and long-term cultures initiated either with purified CD34^+ cells or the entire MNC fraction was determined as follows: CD34^+ cells were positively reselected (Miltenyi kit) and counted. Purity was confirmed by subsequent FACS and cell morphology analysis.
(§3) Reselected CD34^+ cell subsets were stained for the following combination of antigens: CD34PE/CD38FITC and CD34PE/38, 33, 14, 15, 3, 4, 61, 19 (Lin) FITC. The fraction positive for CD34 and negative for CD38 was defined as CD34^+CD38^−. The fraction positive for CD34 and negative for LIN was defined as CD34^+Lin^− cell fraction.
FACS analysis results are given as percentage values of cells. Absolute numbers of subsets are calculated from the absolute number of CD34^+ cells.

CD34+ cells [2] = assay: Colony forming unit (CFU / LTC-CFUc) ability of ex-vivo CD34+ cell cultures; details: for No. of CFU*103: 10^−5 M, treated for one week only
Experimental: (§4) Total cell counts, numbers of CD34^+ cells and subsets, and CFU numbers are presented as cumulative numbers, with the assumption that the cultures had not been passaged; i.e., the number of cells per ml were multiplied by the number of passages performed.
Cells were cloned in semi-solid, methylcellulose-containing medium supplemented with 2 IU/ml erythropoietin (Eprex, Cilag AG Int., Switzerland), stem cell factor and IL-3, both at 20 ng/ml, and G-CSF and GM-CSF, both at 10 ng/ml (all from Perpo Tech). Cultures were incubated for 14 days at 37° C., 5% CO2 in a humidified atmosphere.
Briefly, the ability of the cultures to maintain self-renewal was measured by determination of the content of colony forming unit cells in the long and extended long-term cultures (LTC-CFUc), as described in the references hereinabove.

mononuclear cells = assay: Ex-vivo expansion of whole mononuclear cell fraction (MNC) cultures; FACS of reselected CD34+ cells; details: 10^−6 M + cytokines; for % CD34/Lin−: reselected CD34+ fraction, listed as RAR antagonist
Experimental: as §1
Samples were collected and processed within 12 hours postpartum. Blood was mixed with 3% Gelatin (Sigma, St. Louis, Mo.), sedimented for 30 minutes to remove most red blood cells. The leukocyte-rich fraction was harvested and layered on a Ficoll-Hypaque gradient (1.077 gram/ml; Sigma), and centrifuged at 400 g for 30 minutes. The mononuclear cell fraction in the interface layer was collected, washed three times and resuspended in phosphate-buffered saline (PBS) solution (Biological Industries) containing 0.5% bovine serum albumin (BSA, Fraction V; Sigma).
Alternatively, whole mononuclear fraction cells (MNC) were isolated, cultured and supplemented with cytokines, as above.
CD34^+ purified and whole MNC cultures were prepared and maintained as described above. AGN 194310 RAR antagonist was added to test cultures at concentrations ranging from 1×10^−3-1×10^−11 M [or 410 μg/l to 4.1×10^−5 μg/l]. The antagonist was added for a predetermined, limited period, for up to three weeks or continuously during the entire culture period.
as §2, §3, §4

[3] = 2 weeks expansion, re-selected CD34+ cell fraction (FIG. 2)

Question: What does the source list for `CCc1ccc(C2=CC(C)(C)Sc3ccc(C#Cc4ccc(C(=O)O)cc4)cc32)cc1` [AGN 194310, 4-[[4-(4-ethylphenyl)-2,2-dimethyl-(2H)-thiochroman-6-yl]-ethynyl]benzoic acid]?
Answer: increase in CD34+CD38− surface expression (CD34+ cells [1]; [3]): 1000 fold; increase in CD34+Lin− surface expression (CD34+ cells [1]; [3]): 500 fold; No. of CD34+ cells (CD34+ cells [1]; 10^−5 M, week 13): 10322; No. of CD34+ cells (CD34+ cells [1]; 10^−5 M, week 20): 0; % 34+ cells (CD34+ cells [1]; 10^−5 M): 18.94%; % 34+/38− cells (CD34+ cells [1]; 10^−5 M): 17.14%; % 34+/Lin− cells (CD34+ cells [1]; 10^−5 M): 15.18%; No. of cells (×10^4) (CD34+ cells [1]; 10^−5 M): 42 ×10^4; % 34+ cells (CD34+ cells [1]; 10^−6 M): 19.59%; % 34+/38− cells (CD34+ cells [1]; 10^−6 M): 17.16%; % 34+/Lin− cells (CD34+ cells [1]; 10^−6 M): 11.91%; No. of cells (×10^4) (CD34+ cells [1]; 10^−6 M): 52 ×10^4; time post initial seeding until which cell proliferation was enabled (CD34+ cells [1]; 10^−7 M or 0.41 microgram/liter (FIG. 4)): ≤ 11 weeks; activity on ex vivo expansion of stem/progenitor cells (CD34+ cells [1]; 10^−7 M, along with IL-3, 3 and 5 weeks): moderate activity; increase in CD34+Lin− surface expression (CD34+ cells [1]; after two weeks in culture, CD34+ re-selected fraction (FIG. 3C)): 530 fold; increase in CD34+ expression between week three to eleven (CD34+ cells [1]; antagonist for the first three weeks only, then eight weeks without): 92 fold; expression of differentiation associated antigens CD33, CD14, CD15, CD4, CD3, CD19 and CD61 (CD34+ cells [1]; two weeks, FACS (FIGS. 1A-C)): significantly inhibited; expression of the CD38 antigen (CD34+ cells [1]; two weeks, FACS (FIGS. 1A-C)): completely abolished; expansion of CD34+ compartment since the initiation of the cultures (CD34+ cells [1]; week 11, antagonist for the first three weeks only): 1621 fold; increase in CD34+Lin− expression (CD34+ cells [1]; week eleven, 9 weeks after termination of antagonist treatment): 16,700 fold; No. of CFU*103 (CD34+ cells [2]; week 13): 66355 *103; No. of CFU*103 (CD34+ cells [2]; week 20): 0 *103; increase of CFU content (CD34+ cells [2]; extended long-term (8-10 week) cultures, pulse-treatment or continuous treatment): 15 ×10^4; increase in CFU content as compared to control (CD34+ cells [2]; long-term (6 weeks) cultures pulsed for the first 3 weeks): 5 fold; increase in CFU content as compared to control (CD34+ cells [2]; long-term cultures, antagonist administered continuously): 5 fold; mixed colony forming unit (CFU-mix) content vs control (CD34+ cells [2]; long-term cultures, pulsed first 3 weeks or continuous (FIG. 7)): dramatic increase; No of CD34+/Lin− × 10^4 (cumulative value) (mononuclear cells; 2 weeks): 132.5 × 10^4; No of CD34 cells × 10^4 (cumulative value) (mononuclear cells; 2 weeks): 169 × 10^4; % CD34/Lin− (mononuclear cells; 2 weeks): 78% and 78.4%; No of CD34+/Lin− × 10^4 (cumulative value) (mononuclear cells; 5 weeks): 237.8 × 10^4; No of CD34 cells × 10^4 (cumulative value) (mononuclear cells; 5 weeks): 985 × 10^4; % CD34/Lin− (mononuclear cells; 5 weeks): 24% and 24.1%

— patent US7955852B2, “Expansion of renewable stem cell populations” (Gamida Cell Ltd., priority 2002, dated 2011)
